Experimental findings from publication PMC8040043, “Synthesis, Inhibitory Activity, and In Silico Modeling of Selective COX-1 Inhibitors with a Quinazoline Core” (ACS Medicinal Chemistry Letters, 2021) are described below.

One experiment concerns the target T1, Ovine COX-1 (Ovis aries, UniProt P05979).
T1 construct: purchased Sigma-Aldrich
T1 sequence (P05979 25-600): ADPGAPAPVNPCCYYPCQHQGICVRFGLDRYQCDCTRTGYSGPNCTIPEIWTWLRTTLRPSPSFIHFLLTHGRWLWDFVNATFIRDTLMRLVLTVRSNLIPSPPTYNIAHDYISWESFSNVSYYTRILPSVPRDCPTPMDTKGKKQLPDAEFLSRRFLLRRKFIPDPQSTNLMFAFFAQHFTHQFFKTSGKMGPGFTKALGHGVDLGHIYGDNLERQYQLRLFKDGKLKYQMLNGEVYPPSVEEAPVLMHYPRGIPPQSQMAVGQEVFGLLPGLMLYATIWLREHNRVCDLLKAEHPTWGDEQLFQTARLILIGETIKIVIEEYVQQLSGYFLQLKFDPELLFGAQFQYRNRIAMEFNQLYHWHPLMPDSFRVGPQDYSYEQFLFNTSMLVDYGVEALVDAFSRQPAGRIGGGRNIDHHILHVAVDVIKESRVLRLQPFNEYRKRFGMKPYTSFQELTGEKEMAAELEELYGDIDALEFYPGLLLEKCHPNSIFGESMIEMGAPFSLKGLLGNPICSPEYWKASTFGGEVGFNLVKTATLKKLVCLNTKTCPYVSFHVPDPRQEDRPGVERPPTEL
In words: COX-1 in vitro enzymatic assay (PGE2 ELISA). The class given is biochemical. Conditions: for inhibition at 20 µM: compound at 20 μM; for inhibitory activity in COX assays (in words): less than 50% inhibition on both COX isoforms considered inactive. On the procedure: (§1) The inhibitory activity of compounds was tested using in vitro enzymatic assay. Ovine COX-1 (1 unit/reaction) or human recombinant COX-2 (0.5 unit/reaction; both enzymes Sigma-Aldrich, USA) was added to 180 µL of 100 mM Tris buffer (pH 8.0), containing 5 μM porcine hematin, 18 mM L-epinephrine, and 50 μM Na2EDTA. Ten µL of tested compound dissolved in DMSO or pure DMSO (as a blank) were added to the reaction.
(§2) Sigma-Aldrich, USA) was used as a reference inhibitor. After 5 min incubation at room temperature, reaction was initiated by 5 µL of arachidonic acid (10 µM) and incubated 20 min in 37°C. Then the reaction was stopped by 20 µL of formic acid (10% v/v). The concentration of prostaglandin E2 (PGE2) was measured with Prostaglandin E2 ELISA kit (Enzo Life Sciences, USA). Reaction mixture was diluted 1:15 in assay buffer (provided in the kit) and incubated according to the manufacturer instructions.
(§3) The concentration of PGE2 produced during the reaction was estimated according to absorbance […]
(§4) inhibitory activity was calculated as percentual inhibition of PGE2 production compared to blank. At first, the inhibitory activity of compounds was tested at 20 µM to see if there is any activity. IC50 […]
(§5) of COX-2. The level of percentual inhibition was chosen based on the percentual inhibition caused by […]
(§6) All the experiments were carried out in duplicates and repeated at least two times. To test whether increasing substrate concentration influences the activity of […]
(§7) reference compound. The inhibitory activity was calculated as percentual inhibition of PGE2 production compared to blank with respective concentration of AA. […]

A further experiment addresses T2, human recombinant COX-2 (Homo sapiens, UniProt P35354).
T2 construct: purchased Sigma-Aldrich
T2 sequence (P35354 18-604): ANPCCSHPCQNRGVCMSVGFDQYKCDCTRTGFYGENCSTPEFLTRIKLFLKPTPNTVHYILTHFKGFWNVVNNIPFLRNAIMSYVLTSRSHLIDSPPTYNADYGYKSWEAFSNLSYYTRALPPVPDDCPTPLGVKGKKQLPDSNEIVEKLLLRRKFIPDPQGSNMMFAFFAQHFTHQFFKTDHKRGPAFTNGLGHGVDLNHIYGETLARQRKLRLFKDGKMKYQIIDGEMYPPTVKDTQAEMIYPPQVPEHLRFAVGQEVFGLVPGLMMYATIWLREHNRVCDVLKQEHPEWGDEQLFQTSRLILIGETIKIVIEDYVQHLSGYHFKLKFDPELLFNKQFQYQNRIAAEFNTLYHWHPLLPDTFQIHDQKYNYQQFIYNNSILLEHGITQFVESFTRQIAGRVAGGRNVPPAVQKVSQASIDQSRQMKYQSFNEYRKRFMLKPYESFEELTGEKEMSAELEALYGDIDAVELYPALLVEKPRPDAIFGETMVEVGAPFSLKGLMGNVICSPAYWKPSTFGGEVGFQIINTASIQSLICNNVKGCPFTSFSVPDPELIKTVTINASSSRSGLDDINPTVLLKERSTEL
Put plainly: COX-2 in vitro enzymatic assay (PGE2 ELISA). In kind it is biochemical. Conditions: for inhibition at 20 µM: compound at 20 μM; for inhibition of COX-2 (in words): at 50 μM. On the procedure:
as §1, §2, §3, §4, §5, §6, §7

As to `Cc1ccc(Nc2nc(/C=C/c3ccccc3)nc3ccccc23)cc1C` [3a], the values for the inhibition at 20 µM on Ovine COX-1 and on human recombinant COX-2 were 50.5% and -38.7%, respectively.
As for `Cc1ccc(Nc2nc(/C=C/c3ccccc3)nc3ccccc23)cc1` [3b], the inhibition at 20 µM against Ovine COX-1 was 95.2%; on human recombinant COX-2, 3.54%. The IC50 on human recombinant COX-2 was 43 ± 10.3 µM.
On to `COc1ccc(Nc2nc(/C=C/c3ccccc3)nc3ccccc23)cc1` [3c], for which, at Ovine COX-1, the inhibition at 20 µM amounted to 95.3%. Also, on human recombinant COX-2, the IC50 was 37.3 ± 9.36 µM and the inhibition at 20 µM is 2.64%.
Turning to `C(=C\c1nc(N2CCNCC2)c2ccccc2n1)/c1ccccc1` [3d], the results for the inhibition at 20 µM at Ovine COX-1 and at human recombinant COX-2 were 31.2% and -4.94%, respectively.
For `CCOC(=O)c1ccc(Nc2nc(/C=C/c3ccccc3)nc3ccccc23)cc1` [3e], the inhibition at 20 µM against Ovine COX-1 is 6.76%; at human recombinant COX-2 it was -16.3%.
The like results for `Fc1ccc(Nc2nc(/C=C/c3ccccc3)nc3ccccc23)cc1F` [3f] were, in that order, 27.6% and -14.5%.
The matching figures for `O=[N+]([O-])c1ccc(Nc2nc(/C=C/c3ccccc3)nc3ccccc23)cc1` [3g]: 13.7% and -24.4%.
The matching figures for `C(=C\c1nc(Nc2cccc3cccnc23)c2ccccc2n1)/c1ccccc1` [3h]: 31.5% and 3.02%.
Take `C(=C\c1nc(Nc2ccccn2)c2ccccc2n1)/c1ccccc1` [3i]: the inhibition at 20 µM at Ovine COX-1 is 17.7%; at human recombinant COX-2, -11.1%.
In the case of `Cc1cc(Nc2nc(/C=C/c3ccccc3)nc3ccccc23)n[nH]1` [3j], the figures for the inhibition at 20 µM on Ovine COX-1 and on human recombinant COX-2 were 41.6% and 13.8%, respectively.
Consider `Fc1ccc(CNc2nc(/C=C/c3ccccc3)nc3ccccc23)cc1F` [3k], for which the concentration for half-maximal inhibition (IC50) at Ovine COX-1 came to 1.9 ± 0.69 µM; at human recombinant COX-2 it was 10.1 ± 1.38 µM. Besides, the inhibition at 20 µM at Ovine COX-1 was determined as 96.8%; at human recombinant COX-2, 71.8%. For the same compound, at Ovine COX-1 (ratio of IC50 COX-2 / IC50 COX-1), the “selectivity index (COX-2/COX-1)” value is reported as 5.32.
For the compound `COC(=O)CCNc1nc(/C=C/c2ccccc2)nc2ccccc12` [3l], the inhibition at 20 µM on Ovine COX-1 is 46.2%; on human recombinant COX-2, 14.9%.
In the case of `CC(C)(C)c1ccc(Nc2nc(/C=C/c3ccccc3)nc3ccccc23)cc1` [3m], the values for the inhibition at 20 µM on Ovine COX-1 and on human recombinant COX-2 were 14% and 9.92%, respectively.
As to `CCCCc1ccc(Nc2nc(/C=C/c3ccccc3)nc3ccccc23)cc1` [3n], the inhibition at 20 µM at Ovine COX-1 was 12.8%; on human recombinant COX-2, 5.59%.
Take `CCCOc1ccc(Nc2nc(/C=C/c3ccccc3)nc3ccccc23)cc1` [3o]: the figures for the inhibition at 20 µM at Ovine COX-1 and at human recombinant COX-2 were 7.33% and -4.79%, respectively.
The matching figures for `Cc1cc(C)c(Nc2nc(/C=C/c3ccccc3)nc3ccccc23)c(C)c1` [3p]: 38% and -22.9%.
The like results for `Fc1cc(F)c(Nc2nc(/C=C/c3ccccc3)nc3ccccc23)c(F)c1` [3q] were, in that order, 24.9% and 12.6%.
The like results for `Cc1cc(F)cc(Br)c1Nc1nc(/C=C/c2ccccc2)nc2ccccc12` [3r] were, in that order, 30.6% and -1.77%.
Regarding `COc1cc(Nc2nc(/C=C/c3ccccc3)nc3ccccc23)cc(OC)c1` [3s], the inhibition at 20 µM was 23.1% at Ovine COX-1 and -14.1% at human recombinant COX-2.
With `FC(F)(F)c1cc(Nc2nc(/C=C/c3ccccc3)nc3ccccc23)cc(C(F)(F)F)c1` [3t], the inhibition at 20 µM is 20.8% at Ovine COX-1 and 10.8% at human recombinant COX-2.
For the compound `FC(F)(F)c1ccc(Nc2nc(/C=C/c3ccccc3)nc3ccccc23)cc1` [3u], the inhibition at 20 µM against Ovine COX-1 came out at 16.8%; on human recombinant COX-2, 16.4%.
With `Nc1ccc(Oc2nc(/C=C/c3ccccc3)nc3ccccc23)cc1` [3v], the inhibition at 20 µM on Ovine COX-1 stood at 94.3%. In addition, at human recombinant COX-2, the 50% inhibitory concentration (IC50) is above 50 µM, the “inhibition of COX-2 (in words)” value is listed as “did not inhibit” and the inhibition at 20 µM came out at 3.5%.
For `COc1ccc(CNc2nc(Cl)nc3cc(Br)ccc23)cc1` [5a], the inhibition at 20 µM on Ovine COX-1 came out at 48.8%; at human recombinant COX-2, 22.7%.
The like results for `Fc1ccc(CNc2nc(Cl)nc3cc(Br)ccc23)cc1F` [5b] were, in that order, 30.4% and 30.6%.
Turning to `COc1ccc(CNc2nc(Cl)nc3cc(-c4ccc(OC)cc4)ccc23)cc1` [6a], the inhibition at 20 µM worked out at 34.1% against Ovine COX-1 and 7.04% at human recombinant COX-2.
For `COc1ccc(CNc2nc(Cl)nc3cc(-c4ccc(F)cc4)ccc23)cc1` [6b], the values for the inhibition at 20 µM at Ovine COX-1 and on human recombinant COX-2 were 26.6% and 27.6%, respectively.
Turning to `COc1ccc(CNc2nc(Cl)nc3cc(-c4cccs4)ccc23)cc1` [6c], the inhibition at 20 µM on Ovine COX-1 was determined as 92.4%. For the same compound, at human recombinant COX-2, the IC50 was above 50 µM, the “inhibition of COX-2 (in words)” value is “did not inhibit” and the inhibition at 20 µM turned out to be 32.3%.
For `COc1ccc(-c2ccc3c(NCc4ccc(F)c(F)c4)nc(Cl)nc3c2)cc1` [6d], the inhibition at 20 µM was 31.6% on Ovine COX-1 and 26.5% at human recombinant COX-2.
Consider `Fc1ccc(CNc2nc(Cl)nc3cc(-c4cccs4)ccc23)cc1F` [6e], for which, on Ovine COX-1, the inhibition at 20 µM turned out to be 96.5%. Besides, on human recombinant COX-2, the IC50 was above 50 µM, the “inhibition of COX-2 (in words)” value was “did not inhibit” and the inhibition at 20 µM amounted to 39.9%.
Take `COc1ccc(CNc2nc(N3CCOCC3)nc3cc(-c4ccc(OC)cc4)ccc23)cc1` [7a]: the inhibition at 20 µM is -3.35% against Ovine COX-1 and 0.8% on human recombinant COX-2.
For the compound `COc1ccc(CNc2nc(N3CCCC3)nc3cc(-c4ccc(OC)cc4)ccc23)cc1` [7b], the figures for the inhibition at 20 µM against Ovine COX-1 and on human recombinant COX-2 were 6.91% and 19.4%, respectively.
The matching figures for `COc1ccc(CNc2nc(N3CCNCC3)nc3cc(-c4ccc(OC)cc4)ccc23)cc1` [7c]: -16.5% and 24.2%.
The like results for `CCN(CC)c1nc(NCc2ccc(OC)cc2)c2ccc(-c3ccc(OC)cc3)cc2n1` [7d] were, in that order, -10.9% and -1.39%.
The like results for `COc1ccc(CNc2nc(N3CCOCC3)nc3cc(-c4ccc(F)cc4)ccc23)cc1` [7e] were, in that order, -5.92% and -7.39%.
Regarding `COc1ccc(CNc2nc(N3CCCC3)nc3cc(-c4ccc(F)cc4)ccc23)cc1` [7f], the inhibition at 20 µM is 32.1% on Ovine COX-1 and 3.22% at human recombinant COX-2.
Regarding `COc1ccc(CNc2nc(N3CCNCC3)nc3cc(-c4ccc(F)cc4)ccc23)cc1` [7g], the inhibition at 20 µM is -13.9% on Ovine COX-1 and -10.1% at human recombinant COX-2.
As for `CCN(CC)c1nc(NCc2ccc(OC)cc2)c2ccc(-c3ccc(F)cc3)cc2n1` [7h], the figures for the inhibition at 20 µM on Ovine COX-1 and at human recombinant COX-2 were -1.12% and 4.43%, respectively.
`COc1ccc(CNc2nc(N3CCOCC3)nc3cc(-c4cccs4)ccc23)cc1` [7i]: the values for the inhibition at 20 µM against Ovine COX-1 and on human recombinant COX-2 were 14.8% and -5.36%, respectively. Further, the “inhibitory activity in COX assays (in words)” value at Ovine COX-1 was “inactive”.
With `COc1ccc(CNc2nc(N3CCCC3)nc3cc(-c4cccs4)ccc23)cc1` [7j], at Ovine COX-1, the inhibition at 20 µM is -38.1% and the “inhibitory activity in COX assays (in words)” value was “inactive”. Besides, the inhibition at 20 µM at human recombinant COX-2 was -2.17%.
Turning to `COc1ccc(-c2ccc3c(NCc4ccc(F)c(F)c4)nc(N4CCOCC4)nc3c2)cc1` [7k], the inhibition at 20 µM is 6.66% on Ovine COX-1 and 7.98% on human recombinant COX-2.
